The values that follow come from patent US9656962B2, “Ring-contracted morphinans and the use thereof” (Purdue Pharma L.P., priority 2013, dated 2017).

The test concerns the target μ-opioid receptor (Homo sapiens (Human), UniProt P35372). Briefly: μ-opioid receptor [35S]GTPγS functional assay, HEK-293 cells (Table 6). As to conditions: for Emax: relative to DAMGO; for EC50: μ GTP. The test is classed as biochemical. On the procedure:
μ-Opioid Receptor Functional Assay Procedures: [^35S]GTPγS functional assays were conducted using freshly thawed μ-receptor membranes prepared in-house from a cell line expressing recombinant μ opioid receptor in a HEK-293, CHO or U-2 OS cell background, or purchased from a commercial source (Perkin Elmer, Shelton, Conn.; or DiscovRx, Fremont, Calif.). Assay reactions were prepared by sequentially adding the following reagents to binding buffer (100 mM NaCl, 10 mM MgCl2, 20 mM HEPES, pH 7.4) on ice (final concentrations indicated): membrane protein (0.026 mg/mL), saponin ([…]), GDP ([…]) and [^35S]GTPγS (0.20 nM; Perkin Elmer, Shelton, Conn.). The prepared membrane solution (190 μl/well) was transferred to 96-shallow well polypropylene plates containing 10 μl of 20× concentrated stock solutions of the agonist [D-Ala^2, N-methyl-Phe^4 Gly-ol^5]-enkephalin (DAMGO) prepared in dimethyl sulfoxide (DMSO). Plates were incubated for 30 min at about 25° C. with shaking Reactions were terminated by rapid filtration onto 96-well Unifilter GF/B filter plates (Perkin Elmer, Shelton, Conn.) using a 96-well tissue harvester (Perkin Elmer, Shelton, Conn.) followed by three filtration washes with 200 μl of ice-cold wash buffer (10 mM NaH2PO4, 10 mM Na2HPO4, pH 7.4). Filter plates were subsequently dried at 50° C. for 2-3 hours. BetaScint scintillation cocktail (Perkin Elmer, Shelton, Conn.) was added (50 μl/well) and plates were counted using a Packard Top-Count for 1 min/well. Data were analyzed using the sigmoidal dose-response curve fitting functions in GraphPad PRISM v. 3.0, or an in-house function for non-linear, sigmoidal dose-response curve-fitting. [^35S]GTPγS functional assays can also be conducted using freshly thawed μ-receptor membranes prepared from a cell line expressing recombinant μ opioid receptor in a CHO-K1 cell background.
μ GTP Emax (%) is the maximal effect elicited by a compound relative to the effect elicited by DAMGO, a standard μ agonist. Generally, the μ GTP Emax (%) value measures the efficacy of a compound to treat or prevent pain or other Conditions.
The following TABLE 6 provides results on the activity response of certain Compounds of the Invention at the μ- and κ-opioid receptors determined as described above using HEK-293 cells.

Take `C[C@@H]1CN(CCNC(=O)[C@H]2C[C@]34CCN(CC5CC5)[C@H](Cc5ccc(O)cc53)[C@]4(O)C2)C[C@H](C)O1` [Compound 135, (2S,3aS,4R,9bS)-12-(cyclopropylmethyl)-N-(2-((2S,6R)-2,6-dimethylmorpholino)-ethyl)-3a,8-dihydroxy-1,2,3,3a,4,5-hexahydro-4,9b-(epiminoethano)cyclo-penta[a]naphthalene-2-carboxamide]: the Emax turned out to be 19.7 ± 0.89% and the midpoint of the response, the EC50, lay at 0.0103 ± 0.00103 µM.
In the case of `CN(C)CCN(C)C(=O)[C@@H]1C[C@]23CCN(C)[C@H](Cc4ccc(O)cc42)[C@]3(O)C1` [Compound 113, (2R,3aS,4R,9bS)-N-(2-(dimethylamino)-ethyl)-3a,8-dihydroxy-N,12-dimethyl-1,2,3,3a,4,5-hexahydro-4,9b-(epimino-ethano)cyclopenta[a]naphthalene-2-carboxamide], the Emax was -1%. The EC50 (bound given in μM) was > 20 µM.
`Cc1ccc(CNC(=O)[C@@H]2C[C@]34CCN(C)[C@H](Cc5ccc(O)cc53)[C@]4(O)C2)cc1` [Compound 104, (2R,3aS,4R,9bS)-3a,8-dihydroxy-12-methyl-N-(4-methylbenzyl)-1,2,3,3a,4,5-hexahydro-4,9b-(epiminoethano)cyclo-penta[a]naphthalene-2-carboxamide]: the Emax stood at 52 ± 3.51% and the half-maximal effective concentration (EC50) is 2.93 ± 1.08 µM.
On to `O=S(=O)(N[C@@H]1C[C@]23CCN(CC4CC4)[C@H](Cc4ccc(O)cc42)[C@]3(O)C1)c1ccccc1` [Compound 95, N-((2R,3aS,4R,9bR)-12-(cyclopropyl-methyl)-3a,8-dihydroxy-1,2,3,3a,4,5-hexahydro-4,9b-(epiminoethano)-cyclopenta[a]naphthalen-2-yl)benzene-sulfonamide], for which the Emax was 1%. For the same molecule, the EC50 (bound given in μM) is > 20 µM.
In the same order, the values of `O=C(NCc1cccc(Cl)c1)[C@@H]1C[C@]23CCN(CC4CC4)[C@H](Cc4ccc(O)cc42)[C@]3(O)C1` [Compound 152, (2R,3aS,4R,9bS)-N-(3-chlorobenzyl)-12-(cyclopropylmethyl)-3a,8-dihydroxy-1,2,3,3a,4,5-hexahydro-4,9b-(epimino-ethano)cyclopenta[a]naphthalene-2-carboxamide] are 4.45 ± 3.18% and > 20 µM.
`CN1CC[C@]23C[C@@H](C(=O)NCCc4ccccc4)C[C@@]2(O)[C@H]1Cc1ccc(O)cc13` [Compound 100, (2R,3aS,4R,9bS)-3a,8-dihydroxy-12-methyl-N-phenethyl-1,2,3,3a,4,5-hexahydro-4,9b-(epiminoethano)cyclo-penta[a]naphthalene-2-carboxamide]: the Emax came out at 50.3 ± 0.33% and a half-maximal response (EC50) required 1.1 ± 0.188 µM.
In the same order, the values of `CN1CC[C@]23C[C@@H](C(=O)NCc4ccc(Cl)cc4Cl)C[C@@]2(O)[C@H]1Cc1ccc(O)cc13` [Compound 103, (2R,3aS,4R,9bS)-N-(2,4-dichlorobenzyl)-3a,8-dihydroxy-12-methyl-1,2,3,3a,4,5-hexahydro-4,9b-(epiminoethano)cyclo-penta[a]naphthalene-2-carboxamide] are 68 ± 9.54% and 0.389 ± 0.0733 µM.
In the same order, the values of `O=C(NCc1cc(F)cc(F)c1)[C@H]1C[C@]23CCN(CC4CC4)[C@H](Cc4ccc(O)cc42)[C@]3(O)C1` [Compound 143, (2S,3aS,4R,9bS)-12-(cyclopropylmethyl)-N-(3,5-difluorobenzyl)-3a,8-dihydroxy-1,2,3,3a,4,5-hexahydro-4,9b-(epimino-ethano)cyclopenta[a]naphthalene-2-carboxamide] are 39.9 ± 1.01% and 0.00209 ± 0.00045 µM.
Taken in the same sequence, the figures for `Cc1ccc(CNC(=O)[C@H]2C[C@]34CCN(CC5CC5)[C@H](Cc5ccc(O)cc53)[C@]4(O)C2)cc1Cl` [Compound 137, (2S,3aS,4R,9bS)-N-(3-chloro-4-methylbenzyl)-12-(cyclopropylmethyl)-3a,8-dihydroxy-1,2,3,3a,4,5-hexahydro-4,9b-(epiminoethano)cyclopenta-[a]naphthalene-2-carboxamide] were 55.5 ± 0.31% and 0.00045 ± 6.1e-05 µM.
